We go through 39 compounds from US11427590B2, “Small molecule inhibitors of neutral sphingomyelinase 2 (nSMase2) for the treatment of neurodegenerative diseases” (The Johns Hopkins University, priority 2017, dated 2022).

SMILES strings stand for the structures.

Chain of human nSMase2 (Q9NY59 whole entry): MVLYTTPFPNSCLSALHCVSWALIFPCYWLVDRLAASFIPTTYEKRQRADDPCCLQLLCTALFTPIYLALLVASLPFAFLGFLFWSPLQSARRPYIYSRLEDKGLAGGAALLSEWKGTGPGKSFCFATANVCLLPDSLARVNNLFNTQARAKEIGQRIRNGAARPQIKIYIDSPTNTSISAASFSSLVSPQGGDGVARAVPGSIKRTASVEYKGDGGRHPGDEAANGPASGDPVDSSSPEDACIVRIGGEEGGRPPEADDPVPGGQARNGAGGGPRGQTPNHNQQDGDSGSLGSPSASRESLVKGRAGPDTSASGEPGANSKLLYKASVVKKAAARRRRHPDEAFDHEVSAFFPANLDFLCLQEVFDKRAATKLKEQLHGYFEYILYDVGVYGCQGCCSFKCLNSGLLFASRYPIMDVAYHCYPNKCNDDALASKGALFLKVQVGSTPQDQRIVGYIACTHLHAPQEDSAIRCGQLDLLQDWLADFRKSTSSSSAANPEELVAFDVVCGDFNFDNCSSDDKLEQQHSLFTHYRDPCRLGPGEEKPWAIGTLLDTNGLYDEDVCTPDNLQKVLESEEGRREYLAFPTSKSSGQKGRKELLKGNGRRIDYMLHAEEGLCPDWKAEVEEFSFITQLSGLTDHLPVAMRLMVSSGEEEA

The first data set concerns the target human nSMase2 (Homo sapiens (Human), UniProt Q9NY59). Description: Human nSMase2 fluorescence-based activity assay. It is filed as biochemical. The note with it: inhibition of nSMase2, IC50 category A-D; read-out: Activity*. The source says: Figuera-Losada, et al. Lysate of cells expressing recombinant nSMase2 is used to catalyze the hydrolysis of sphingomyelin (SM) to ceramide and phosphorylcholine.
Consider `COc1ccc(-c2scc3c(N4CC[C@@H](NC(C)=O)C4)nc(Cl)nc23)cc1OC` [26-PROV], for which the IC50 was > 100 µM.
On to `COc1ccc(-n2c(C)nc3c(N4CC[C@@H](NC(C)=O)C4)nc(C)nc32)cc1OC` [3-PROV], for which the IC50 was > 100 µM.
Same read-out and setting: the figure for `COc1ccc(-c2csc3c(N4CC[C@@H](NC(C)=O)C4)nc(Cl)nc23)cc1OC` [24-PROV] is > 100 µM.
`COc1ccc(-n2c(C)nc3c(N4CC[C@@H](NC(C)=O)C4)ncnc32)cc1OC` [5-PROV]: the IC50 is > 100 µM.
As for `COc1ccc(-c2nn(C)c3c(N4CC[C@@H](NC(C)=O)C4)nc(C)nc23)cc1OC` [13-PROV], the IC50 was > 100 µM.
Same read-out and setting: for `COc1ccc(-n2cnc3c(N4CC[C@@H](NC(C)=O)C4)nc(C)nc32)cc1OC` [2-PROV] the value was > 100 µM.
In the case of `COc1ccc(-c2csc3c(N4CC[C@@H](NC(C)=O)C4)ncnc23)cc1OC` [27-PROV], the IC50 was > 100 µM.
Turning to `COc1ccc(-c2scc3c(N4CC[C@@H](NC(C)=O)C4)nc(C)nc23)cc1OC` [29b-PROV], the IC50 is > 100 µM.
`COc1ccc(-c2csc3c(N4CC[C@@H](NC(C)=O)C4)nc(C)nc23)cc1OC` [30-PROV]: the IC50 was > 100 µM.
As to `COc1ccc(-c2c(C)sc3c(N4CC[C@@H](NC(C)=O)C4)nc(C)nc23)cc1OC` [29a-PROV], the IC50 is > 100 µM.
In the case of `COc1ccc(-n2ncc3c(N4CC[C@@H](NC(C)=O)C4)nc(C)nc32)cc1OC` [10-PROV], the IC50 was > 100 µM.
On the same count and under the same terms, for `COc1ccc(-c2c(C)oc3c(N4CC[C@@H](NC(C)=O)C4)cc(C)nc23)cc1OC` [8-PROV] the value was > 100 µM.
For the compound `COc1ccc(-c2c(C)sc3c(N4CC[C@@H](NC(C)=O)C4)ncnc23)cc1OC` [28-PROV], the IC50 is > 100 µM.
Take `COc1ccc(-c2c(C)sc3c(N4CC[C@@H](NC(C)=O)C4)nc(Cl)nc23)cc1OC` [25-PROV]: the IC50 is > 100 µM.
As for `COc1ccc(-c2c(C)nn3c(N4CC[C@@H](NC(C)=O)C4)cc(C)nc23)cc1OC` [4-PROV], the IC50 is > 100 µM.
On the same count and under the same terms, the figure for `COc1ccc(-c2c3nc(C)nc(N4CC[C@@H](NC(C)=O)C4)c3nn2C)cc1OC` [12-PROV] is > 100 µM.
On to `COc1ccc(-c2c(C)nn3c(N4CC[C@@H](NC(C)=O)C4)nc(C)nc23)cc1OC` [36-PROV], for which the IC50 was > 100 µM.
As for `COc1ccc(-n2cnc3c(N4CC[C@@H](NC(C)=O)C4)ncnc32)cc1OC` [6-PROV], the IC50 is > 100 µM.

Still in this data set, the particulars now being: inhibition of nSMase2; read-out: IC50.
Turning to `CC(=O)N[C@@H]1CCN(c2cc(C)nn3c(-c4ccc(O)cc4)c(C)nc23)C1` [47-PROV], the IC50 was ≤ 1 µM.
On to `CC(=O)N[C@@H]1CCN(c2cc(C)nn3c(C)c(C)nc23)C1` [48-PROV], for which the IC50 is > 1 µM.
Turning to `COc1cccc(-c2c(C)nc3c(N4CC[C@@H](NC(C)=O)C4)cc(C)nn23)c1` [20-PROV], the IC50 was > 1 µM.
For `CC(=O)N[C@@H]1CCN(c2cc(Cl)nn3cc(C)nc23)C1` [9-PROV], the IC50 was > 100 µM.
For the compound `CC(=O)N[C@@H]1CCN(c2cc(C)nn3c(I)c(C)nc23)C1` [23-PROV], the IC50 is > 10 µM.
`CC(=O)N[C@@H]1CCN(c2ccnn3cc(C)nc23)C1` [15-PROV]: the IC50 was > 10 µM.
On the same count and under the same terms, for `CC(=O)N[C@@H]1CCN(c2cc(Cl)nn3c(-c4ccc(F)cc4)c(C)nc23)C1` [18-PROV] the value was > 100 µM; for `CC(=O)N[C@@H]1CCN(c2cc(C)nn3c(-c4ccc5c(c4)OCO5)c(C)nc23)C1` [40-PROV], ≤ 1 µM; for `COc1cccc(-c2c(C)nc3c(N4CC[C@@H](NC(C)=O)C4)cc(Cl)nn23)c1` [14-PROV], > 100 µM.
With `CC(=O)N[C@@H]1CCN(c2cc(C)nn3c(-c4cccc(S(C)(=O)=O)c4)c(C)nc23)C1` [42-PROV], the IC50 was > 1 µM.
For `COc1ccc(-c2c(C)nc3c(N4CC[C@@H](NC(C)=O)C4)cc(Cl)nn23)cc1` [11-PROV], the IC50 is > 100 µM.
As for `COc1cc(N2CC[C@@H](NC(C)=O)C2)c2nc(C)c(-c3ccc(OC)c(OC)c3)n2n1` [38-PROV], the IC50 is > 1 µM.
For the compound `CC(=O)Nc1cccc(-c2c(C)nc3c(N4CC[C@@H](NC(C)=O)C4)cc(C)nn23)c1` [22-PROV], the IC50 is > 1 µM.
Take `CC(=O)Nc1cccc(-c2c(C)nc3c(N4CC[C@@H](NC(C)=O)C4)cc(Cl)nn23)c1` [19-PROV]: the IC50 is > 100 µM.

Test system in a further data set: not listed separately
Description: Phase I metabolic stability in mouse liver microsomes. It is filed as in vitro ADME. The note with it: 37° C. The protocol: (§1) Phase I metabolic stability in both mouse and human liver microsomes was performed as described previously. Rais et al. Briefly, compounds are spiked in liver microsomes (mouse, human) and incubated in an orbital shaker at 37° C. […] Compound disappearance is monitored over time using LC/MS/MS.
Background: Liver microsomes are a subcellular fraction often used to study metabolism.
For `CC(=O)N[C@@H]1CCN(c2cc(C)nn3c(-c4cccs4)c(C)nc23)C1` [compound 13, (R)—N-(1-(2,6-dimethyl-3-(thiophen-2-yl)imidazo[1,2-b]pyridazin-8-yl)pyrrolidin-3-yl)acetamide], the “Mouse Liver Microsome (+) NADPH % Remaining at 60 min” value is on record as 28 ± 2%.
For `COc1ccc(-c2c(C)nc3c(N4CC[C@@H](NS(=O)(=O)c5ccc(C(C)=O)cc5)C4)cc(C)nn23)cc1OC` [compound 23, (R)-4-acetyl-N-(1-(3-(3,4-dimethoxyphenyl)-2,6-dimethylimidazo[1,2-b]pyridazin-8-yl)pyrrolidin-3-yl)benzenesulfonamide], the “Mouse Liver Microsome (+) NADPH % Remaining at 60 min” value is 5 ± 1%.
With `CC(=O)N[C@@H]1CCN(c2cc(C)nn3c(-c4ccc(OC(F)(F)F)cc4)c(C)nc23)C1` [compound 17, (R)—N-(1-(2,6-dimethyl-3-(4-(trifluoromethoxy)phenyl)imidazo[1,2-b]pyridazin-8-yl)pyrrolidin-3-yl)acetamide], the “Mouse Liver Microsome (+) NADPH % Remaining at 60 min” value came to 72 ± 6%.
Consider `COc1ccc(-c2c(C)nc3c(N4CC[C@@H](NS(=O)(=O)c5ccc(Cl)cc5)C4)cc(C)nn23)cc1OC` [compound 29, (R)-4-chloro-N-(1-(3-(3,4-dimethoxyphenyl)-2,6-dimethylimidazo[1,2-b]pyridazin-8-yl)pyrrolidin-3-yl)benzenesulfonamide], for which the “Mouse Liver Microsome (+) NADPH % Remaining at 60 min” value amounted to 7 ± 2%.
As to `COc1ccc(-c2c(C)nc3c(N4CC[C@@H](NS(=O)(=O)c5ccccc5)C4)cc(C)nn23)cc1OC` [compound 28, (R)—N-(1-(3-(3,4-dimethoxyphenyl)-2,6-dimethylimidazo[1,2-b]pyridazin-8-yl)pyrrolidin-3-yl)benzenesulfonamide], the “Mouse Liver Microsome (+) NADPH % Remaining at 60 min” value is listed as 20 ± 1%.
As to `COc1ccc(-c2c(C)nc3c(N4CC[C@@H](NS(=O)(=O)c5ccc(C)cc5)C4)cc(C)nn23)cc1OC` [compound 22, (R)—N-(1-(3-(3,4-dimethoxyphenyl)-2,6-dimethylimidazo[1,2-b]pyridazin-8-yl)pyrrolidin-3-yl)-4-methylbenzenesulfonamide], the “Mouse Liver Microsome (+) NADPH % Remaining at 60 min” value is 2 ± 1%.
Turning to `COc1ccc(-c2c(C)nc3c(N4CC[C@@H](NC(=O)C(F)(F)c5ccccc5)C4)cc(C)nn23)cc1OC` [compound 37, (R)—N-(1-(3-(3,4-dimethoxyphenyl)-2,6-dimethylimidazo[1,2-b]pyridazin-8-yl)pyrrolidin-3-yl)-2,2-difluoro-2-phenylacetamide], the “Mouse Liver Microsome (+) NADPH % Remaining at 60 min” value stood at 6 ± 1%.

Test system in the next data set: not listed separately
The data set is described as follows: Phase I metabolic stability in human liver microsomes. It is filed as in vitro ADME. Particulars: 37° C. The protocol:
as §1
As to `CC(=O)N[C@@H]1CCN(c2cc(C)nn3c(-c4cccs4)c(C)nc23)C1` [compound 13, (R)—N-(1-(2,6-dimethyl-3-(thiophen-2-yl)imidazo[1,2-b]pyridazin-8-yl)pyrrolidin-3-yl)acetamide], the “Human Liver Microsome (+) NADPH Remaining at 60 min” value was 50 ± 4%.
Same read-out and setting: the figure for `COc1ccc(-c2c(C)nc3c(N4CC[C@@H](NS(=O)(=O)c5ccc(C(C)=O)cc5)C4)cc(C)nn23)cc1OC` [compound 23, (R)-4-acetyl-N-(1-(3-(3,4-dimethoxyphenyl)-2,6-dimethylimidazo[1,2-b]pyridazin-8-yl)pyrrolidin-3-yl)benzenesulfonamide] is 12 ± 3%.
In the case of `CC(=O)N[C@@H]1CCN(c2cc(C)nn3c(-c4ccc(OC(F)(F)F)cc4)c(C)nc23)C1` [compound 17, (R)—N-(1-(2,6-dimethyl-3-(4-(trifluoromethoxy)phenyl)imidazo[1,2-b]pyridazin-8-yl)pyrrolidin-3-yl)acetamide], the “Human Liver Microsome (+) NADPH Remaining at 60 min” value came to 114 ± 4%.
Still for that read-out and setting: for `COc1ccc(-c2c(C)nc3c(N4CC[C@@H](NS(=O)(=O)c5ccc(Cl)cc5)C4)cc(C)nn23)cc1OC` [compound 29, (R)-4-chloro-N-(1-(3-(3,4-dimethoxyphenyl)-2,6-dimethylimidazo[1,2-b]pyridazin-8-yl)pyrrolidin-3-yl)benzenesulfonamide] the value was 32 ± 6%.
Take `COc1ccc(-c2c(C)nc3c(N4CC[C@@H](NS(=O)(=O)c5ccccc5)C4)cc(C)nn23)cc1OC` [compound 28, (R)—N-(1-(3-(3,4-dimethoxyphenyl)-2,6-dimethylimidazo[1,2-b]pyridazin-8-yl)pyrrolidin-3-yl)benzenesulfonamide]: the “Human Liver Microsome (+) NADPH Remaining at 60 min” value is on record as 43 ± 6%.
In the case of `COc1ccc(-c2c(C)nc3c(N4CC[C@@H](NS(=O)(=O)c5ccc(C)cc5)C4)cc(C)nn23)cc1OC` [compound 22, (R)—N-(1-(3-(3,4-dimethoxyphenyl)-2,6-dimethylimidazo[1,2-b]pyridazin-8-yl)pyrrolidin-3-yl)-4-methylbenzenesulfonamide], the “Human Liver Microsome (+) NADPH Remaining at 60 min” value came out at 29 ± 1%.
As to `COc1ccc(-c2c(C)nc3c(N4CC[C@@H](NC(=O)C(F)(F)c5ccccc5)C4)cc(C)nn23)cc1OC` [compound 37, (R)—N-(1-(3-(3,4-dimethoxyphenyl)-2,6-dimethylimidazo[1,2-b]pyridazin-8-yl)pyrrolidin-3-yl)-2,2-difluoro-2-phenylacetamide], the “Human Liver Microsome (+) NADPH Remaining at 60 min” value was 20 ± 2%.
